In PubChem BioAssay AID220 (DTP/NCI, 2004):
“And” between values parts separate entries of the source, which are not always exact repeats. Equal values may be shown once. Records with an inconclusive call do not appear.

System: CD8F1 mice, subcutaneous mammary adenocarcinoma, T/C%
Experiment: NCI In Vivo Anticancer Drug Screen. Data for tumor model Mammary Adenocarcinoma CD8F1 (subcutaneous) in CD8F1
Conditions: higher = larger tumour
Method in brief: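 Ratio of treated to vehicle-control outcome, based on either survival or tumor size, in mice bearing transplantable tumors given the test compound.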

[1] = endpoint: median tumor weight (est.), dose: 12.5 mg/kg/injection, schedule: Q07DX005 (ip), vehicle: Klucel (hydroxypropylcellulose) (HPC)
[2] = endpoint: median tumor weight (est.), dose: 25.0 mg/kg/injection, schedule: Q07DX005 (ip), vehicle: Klucel (hydroxypropylcellulose) (HPC)
[3] = endpoint: median tumor weight (est.), dose: 50.0 mg/kg/injection, schedule: Q07DX005 (ip), vehicle: Klucel (hydroxypropylcellulose) (HPC)
[4] = endpoint: median tumor weight (est.), dose: 100.0 mg/kg/injection, schedule: Q07DX005 (ip), vehicle: Klucel (hydroxypropylcellulose) (HPC)
[5] = endpoint: median tumor weight change, dose: 1000.0 mg/kg/injection, schedule: Q01DX001 (ip), vehicle: saline with Tween-80
[6] = endpoint: median tumor weight change, dose: 125.0 mg/kg/injection, schedule: Q01DX001 (ip), vehicle: saline with Tween-80
[7] = endpoint: median tumor weight change, dose: 250.0 mg/kg/injection, schedule: Q01DX001 (ip), vehicle: saline with Tween-80
[8] = endpoint: median tumor weight change, dose: 62.5 mg/kg/injection, schedule: Q01DX001 (ip), vehicle: saline with Tween-80
[9] = endpoint: median tumor weight (est.), dose: 25.0 mg/kg/injection, schedule: Q07DX005 (ip), vehicle: saline
[10] = endpoint: median tumor weight (est.), dose: 100.0 mg/kg/injection, schedule: Q07DX005 (ip), vehicle: saline
[11] = endpoint: median tumor weight (est.), dose: 200.0 mg/kg/injection, schedule: Q07DX005 (ip), vehicle: saline
[12] = endpoint: median tumor weight (est.), dose: 400.0 mg/kg/injection, schedule: Q07DX005 (ip), vehicle: saline

With `CN(C(=S)S(=O)(=O)C12CC3CC(CC(C3)C1)C2)c1ccccc1` the T/C (endpoint: median tumor weight (est.), dose: 6.25 mg/kg/injection, schedule: Q07DX005 (ip), vehicle: Klucel (hydroxypropylcellulose) (HPC)) was 66 % of control, the T/C [1] was 84 % of control and the T/C [2] was 81 % of control. For the same compound, the T/C [3] was 77 % of control and the T/C [4] was 61 % of control.
With `Cc1ccc(C2NC(=S)N3C(c4ccc(C)cc4)NC(=S)N23)cc1` (stereo unspecified) the T/C (endpoint: median tumor weight change, dose: 125.0 mg/kg/injection, schedule: Q01DX001 (ip), vehicle: Klucel (hydroxypropylcellulose) (HPC)) was 77 % of control, the T/C (endpoint: median tumor weight change, dose: 250.0 mg/kg/injection, schedule: Q01DX001 (ip), vehicle: Klucel (hydroxypropylcellulose) (HPC)) was 104 % of control and the T/C (endpoint: median tumor weight change, dose: 500.0 mg/kg/injection, schedule: Q01DX001 (ip), vehicle: Klucel (hydroxypropylcellulose) (HPC)) was 107 % of control. The T/C (endpoint: median tumor weight change, dose: 1000.0 mg/kg/injection, schedule: Q01DX001 (ip), vehicle: Klucel (hydroxypropylcellulose) (HPC)) was 94 % of control and the T/C (endpoint: median tumor weight change, dose: 2000.0 mg/kg/injection, schedule: Q01DX001 (ip), vehicle: Klucel (hydroxypropylcellulose) (HPC)) was 68 % of control.
`C=C(C)C(=O)OC1C/C(CO)=C\C(O)C/C(C)=C/C2OC(=O)C(=C)C21` (stereo unspecified) was tested, and the T/C (endpoint: median tumor weight change, dose: 12.0 mg/kg/injection, schedule: Q01DX001 (ip), vehicle: saline + alcohol) was 86 % of control, the T/C (endpoint: median tumor weight change, dose: 25.0 mg/kg/injection, schedule: Q01DX001 (ip), vehicle: saline + alcohol) was 49 % of control and the T/C (endpoint: median tumor weight change, dose: 50.0 mg/kg/injection, schedule: Q01DX001 (ip), vehicle: saline + alcohol) was 69 % of control. For the same compound, the T/C (endpoint: median tumor weight change, dose: 100.0 mg/kg/injection, schedule: Q01DX001 (ip), vehicle: saline + alcohol) was 60 % of control.
With `Cc1oc2c(C)c3oc(=O)cc(C)c3cc2c1CCl` the T/C (endpoint: median tumor weight change, dose: 15.62 mg/kg/injection, schedule: Q01DX001 (ip), vehicle: saline with Tween-80) was 60 % of control, the T/C (endpoint: median tumor weight change, dose: 31.25 mg/kg/injection, schedule: Q01DX001 (ip), vehicle: saline with Tween-80) was 68 % of control and the T/C [5] was 42 % of control.
`CC(=O)NNC(=O)c1ccccn1` was tested, and the T/C (endpoint: mean tumor weight, dose: 25.0 mg/kg/injection, schedule: Q01DX009 (ip), vehicle: saline) was 28 % of control, the T/C (endpoint: mean tumor weight, dose: 50.0 mg/kg/injection, schedule: Q07DX004 (ip), vehicle: saline) was 112 % of control and the T/C (endpoint: mean tumor weight, dose: 100.0 mg/kg/injection, schedule: Q01DX009 (ip), vehicle: saline) was 32 % of control. The T/C (endpoint: mean tumor weight, dose: 100.0 mg/kg/injection, schedule: Q07DX004 (ip), vehicle: saline) was 74 % of control, the T/C (endpoint: mean tumor weight, dose: 100.0 mg/kg/injection, schedule: Q07DX005 (ip), vehicle: saline) was 99 % of control and the T/C (endpoint: mean tumor weight, dose: 200.0 mg/kg/injection, schedule: Q07DX004 (ip), vehicle: saline) was 56 % of control. The T/C (endpoint: mean tumor weight, dose: 200.0 mg/kg/injection, schedule: Q07DX005 (ip), vehicle: saline) was 82 % of control.
For `CC1=C[C@@]23[C@H](C=C(C(=O)O)[C@@H]2COC(=O)[C@]32CO2)[C@@H]1C`, the T/C (endpoint: median tumor weight change, dose: 0.31 mg/kg/injection, schedule: Q01DX001 (ip), vehicle: saline) was 116 % of control, the T/C (endpoint: median tumor weight change, dose: 0.62 mg/kg/injection, schedule: Q01DX001 (ip), vehicle: saline) was 115 % of control and the T/C (endpoint: median tumor weight change, dose: 1.25 mg/kg/injection, schedule: Q01DX001 (ip), vehicle: saline) was 98 % of control. For the same compound, the T/C (endpoint: median tumor weight change, dose: 2.5 mg/kg/injection, schedule: Q01DX001 (ip), vehicle: saline) was 85 % of control and the T/C (endpoint: median tumor weight change, dose: 5.0 mg/kg/injection, schedule: Q01DX001 (ip), vehicle: saline) was 100 % of control.
For `COC1CC(C)C(OC)c2cc(O)cc(c2O)NC(=O)/C(C)=C/C=C\C(C)C(OC(N)=O)/C(C)=C\C(C)C1OC` (stereo unspecified), the T/C (endpoint: median tumor weight change, dose: 6.25 mg/kg/injection, schedule: Q01DX001 (ip), vehicle: saline + Tween-80 + alcohol) was 87 % of control, the T/C (endpoint: median tumor weight change, dose: 12.5 mg/kg/injection, schedule: Q01DX001 (ip), vehicle: saline + Tween-80 + alcohol) was 88 % of control and the T/C (endpoint: median tumor weight change, dose: 25.0 mg/kg/injection, schedule: Q01DX001 (ip), vehicle: saline + Tween-80 + alcohol) was 87 % of control.
With `CCCCCCOC(CN(C)C)C(Cl)(Cl)Cl` (stereo unspecified) the T/C (endpoint: median tumor weight change, dose: 100.0 mg/kg/injection, schedule: Q01DX001 (ip), vehicle: saline with Tween-80) was 53 % of control, the T/C [6] was 173 % of control and the T/C (endpoint: median tumor weight change, dose: 200.0 mg/kg/injection, schedule: Q01DX001 (ip), vehicle: saline with Tween-80) was 68 % of control. For the same compound, the T/C [7] was 81 % of control, the T/C (endpoint: median tumor weight change, dose: 400.0 mg/kg/injection, schedule: Q01DX001 (ip), vehicle: saline with Tween-80) was 93 % of control and the T/C (endpoint: median tumor weight change, dose: 500.0 mg/kg/injection, schedule: Q01DX001 (ip), vehicle: saline with Tween-80) was 72 % of control. For the same compound, the T/C [5] was 79 % of control.
For `C/C(=N\NC(N)=O)c1cccc(/C(C)=N/NC(N)=O)n1`, the T/C [8] was 64 % of control, the T/C [6] was 53 % of control and the T/C [7] was 48 % of control.
In the case of `Oc1c(Cl)cc(C(c2cc(Cl)c(O)c(Cl)c2)C(c2cc(Cl)c(O)c(Cl)c2)c2cc(Cl)c(O)c(Cl)c2)cc1Cl`, the T/C [1] was 540 % of control, the T/C [2] was 341 % of control and the T/C [3] was 294 % of control. For the same compound, the T/C [4] was 84 % of control and the T/C (endpoint: median tumor weight (est.), dose: 200.0 mg/kg/injection, schedule: Q07DX005 (ip), vehicle: Klucel (hydroxypropylcellulose) (HPC)) was 192 % of control.
With `Cc1cnc(/C=N\NC(N)=S)c2cccc(N)c12` the T/C (endpoint: median tumor weight (est.), dose: 3.12 mg/kg/injection, schedule: Q07DX005 (ip), vehicle: saline with Tween-80) was 93 % of control, the T/C (endpoint: median tumor weight (est.), dose: 12.5 mg/kg/injection, schedule: Q07DX005 (ip), vehicle: saline with Tween-80) was 83 % of control and 94 % of control and the T/C (endpoint: median tumor weight (est.), dose: 25.0 mg/kg/injection, schedule: Q07DX005 (ip), vehicle: saline with Tween-80) was 54 % of control and 71 % of control. For the same compound, the T/C (endpoint: median tumor weight (est.), dose: 50.0 mg/kg/injection, schedule: Q07DX005 (ip), vehicle: saline with Tween-80) was 46 % of control and 62 % of control and the T/C (endpoint: median tumor weight (est.), dose: 100.0 mg/kg/injection, schedule: Q07DX005 (ip), vehicle: saline with Tween-80) was 55 % of control and 66 % of control.
In the case of `N/C=N/O`, the T/C [9] was 109 % of control, the T/C (endpoint: median tumor weight (est.), dose: 50.0 mg/kg/injection, schedule: Q07DX005 (ip), vehicle: saline) was 181 % of control and the T/C [10] was 164 % of control. The T/C [11] was 105 % of control, the T/C [12] was 97 % of control and the T/C (endpoint: median tumor weight (est.), dose: 600.0 mg/kg/injection, schedule: Q07DX005 (ip), vehicle: saline) was 78 % of control.
For `NC(=O)NO`, the T/C [9] was 67 % of control, the T/C [10] was 116 % of control and the T/C [11] was 56 % of control. The T/C [12] was 48 % of control and the T/C (endpoint: median tumor weight (est.), dose: 800.0 mg/kg/injection, schedule: Q07DX005 (ip), vehicle: saline) was 59 % of control.
With `O=C(O[Si](Cc1ccccc1)(Cc1ccccc1)Cc1ccccc1)N(CCCl)CCCl` the T/C (endpoint: median tumor weight change, dose: 62.0 mg/kg/injection, schedule: Q01DX001 (ip), vehicle: saline with Tween-80) was 159 % of control and the T/C [8] was 98 % of control and 109 % of control.
In the case of `NC(=O)c1[nH]nc(C2OC(CO)C(O)C2O)c1O` (stereo unspecified), the T/C (endpoint: median tumor weight (est.), dose: 0.31 mg/kg/injection, schedule: Q07DX005 (ip), vehicle: saline) was 123 % of control, the T/C (endpoint: median tumor weight (est.), dose: 0.62 mg/kg/injection, schedule: Q07DX005 (ip), vehicle: saline) was 85 % of control and the T/C (endpoint: median tumor weight (est.), dose: 1.25 mg/kg/injection, schedule: Q07DX005 (ip), vehicle: saline) was 77 % of control. For the same compound, the T/C (endpoint: median tumor weight (est.), dose: 2.5 mg/kg/injection, schedule: Q07DX005 (ip), vehicle: saline) was 28 % of control, the T/C (endpoint: median tumor weight (est.), dose: 5.0 mg/kg/injection, schedule: Q07DX005 (ip), vehicle: saline) was 53 % of control and the T/C (endpoint: median tumor weight (est.), dose: 10.0 mg/kg/injection, schedule: Q07DX005 (ip), vehicle: saline) was 29 % of control.
